Data taken from US12642859B2, “Macropinocytosis selective monobody-drug conjugates” (priority 2020, dated 2026).
Square brackets hold non-standard residues; d marks the D form. Peptide text beside a SMILES is read from it. * marks the point of attachment. Dolaproine = CO[C@@H]([C@@H]1CCCN1)[C@@H](C)C(=O)O; Dil = CC[C@H](C)[C@H](NC)[C@@H](CC(=O)O)OC; X1 = C[C@@H](N*)[C@@H](O)c1ccccc1; NMeV = CN[C@H](C(=O)O)C(C)C

Tests used:
[1] = Ex vivo organ toxicity analysis (H&E, apoptotic markers, tubulin staining) of MIA PaCa tumor bearing mice; type: in vivo
Experimental: FIGS. 5A-5B show the enhanced toxicity of FN-MMAE (monobody) in oncogenic KRas cell lines in vivo. In FIG. 5A, established (100-150 mm^3) subcutaneous MiaPaCa and BxPC3 tumors were treated with, PBS (negative control), 0.2 mg/kg of MMAE alone, or 0.2 mg/kg of FN-MMAE non-binding protein conjugate on Days 0, 7, and 14 (yellow arrows). Tumor growth as assessed by volume was slower in FN-MMAE treated animals compared to MMAE treated alone. n=4 per treatment group. Error bars represent SEM of tumor volume.
FIGS. 6A-6B show ex vivo analysis and mode of action of MMAE.
To test the effects in vivo, a MIA PaCa-2 subcutaneous tumor model was used to compare the efficacy of PBS, MMAE, and FN-MMAE (FIG. 5A). After tumors were established, three injections of 0.2 mg/kg drug with respect to MMAE concentration was administered every 7 days. […] This highlights the specificity of reduced uptake by non-macropinocytic cells in relation to free drug, which contributes to the selective effect of the non-binding FN domain-drug conjugate.

[2] = tested on: KMS11 WT Ras, L363 Mutant NRAS, and RPMI 8226 Mutant KRas cells; experiment: Uptake of fluorescently-tagged monobody and MP marker in multiple myeloma cell lines; type: cell-based, human
Source text: FIGS. 14A-14C show uptake of fluorescently-tagged monobody and MP marker in human multiple myeloma cancer cell lines. FIGS. 14A and 14B are images showing co-localization of the fluorescently-tagged monobody (red) and MP marker (dextran, green) in KMS11 WT Ras, L363 Mutant NRAS, and RPMI 8226 Mutant KRas cells. DAPI, blue.
The differential uptake was established not only in cell lines of solid tumors, but also in blood cancer such as multiple myeloma. […] Using a similar system to the HeLa KRas^V12 inducible system, we created an inducible KRas^V12 cell system in wild type KRas KMS11 multiple myeloma cells.

HeLa KRas^V12 cells = experiment: Macropinocytic uptake of fluorescently labeled non-binding FN domain, co-localization with TMR-dextran (doxycycline-inducible system); type: cell-based, human
Source text: (§1) FIG. 2A and FIG. 2B show the uptake of the fluorescently-tagged monobody and MP marker in human PDAC MIA PaCa and HeLa or HeLa KRas^V12 cells. Co-localization of the fluorescently-tagged monobody (green) and MP marker (dextran, red) in. DAPI, blue. Boxed region is enlarged, inset.
(§2) To determine if non-binding FN domains could be internalized, a well-established doxycycline-inducible mutant KRas^V12 HeLa cell system (hereafter, HeLa KRas^V12) was used in which macropinocytosis is monitored by high-molecular-weight (70 kDa) tetramethyl-rhodamine labeled (TMR−) dextran.

[3] = tested on: mutant KRas PDAC cell line MIA PaCa-2; experiment: Macropinocytic uptake, co-localization with dextran; type: cell-based, human
Source text: as §1, §2

KPC 1203 cells = experiment: as above; type: cell-based, mouse

Structure (SMILES)	H&E of ex vivo organs ([1]; MIA PaCa tumor bearing mice)	tubulin staining ([1]; kidneys)	apoptotic marker expression (CC3, HMGB1, cleaved Parp1) ([1]; kidneys, compared to PBS)	effect of macropinocytosis inhibitor on FN-Cy5.5 uptake [2]	effect of macropinocytosis inhibitor on FN domain and dextran uptake (HeLa KRas^V12 cells)	effect of macropinocytosis inhibitor on uptake of dextran and FN-Cy5.5 [3]	effect of macropinocytosis inhibitor on uptake of dextran and FN-Cy5.5 (KPC 1203 cells)
CC[C@H](C)[C@@H]([C@@H](CC(=O)N1CCC[C@H]1[C@H](OC)[C@@H](C)C(=O)N[C@H](C)[C@@H](O)c1ccccc1)OC)N(C)C(=O)[C@@H](NC(=O)[C@@H](NC)C(C)C)C(C)C [MMAE, monomethyl auristatin E] (H-[NMeV]V[Dil][Dolaproine]-X1)	visual liver damage	drastically reduced	substantial increase in non-specific toxicity	–	–	–	–
CC(Sc1nc2ccccc2[nH]1)C(=O)N/N=C/c1cc(Br)ccc1O (centres unmarked) [KH7]	–	–	–	abolished	–	–	–
CCN(c1nc(N)c(C(=O)NC(=N)N)nc1Cl)C(C)C [EIPA]	–	–	–	abolished	blocked both non-binding FN domain and dextran uptake	abolished uptake of both macromolecules	abolished uptake of both macromolecules
